# Laboratory results: patent US20080299140A1, “Immunogenic Composition and Peptide Sequences for Prevention and Treatment of an Hsv Condition” (priority 2002, published 2008)
# Experiments:
# T-cells = experiment: Cytokine analysis (IL-2, IL-4, IFN-γ sandwich ELISA); format: cell-based, mice
# Experimental: T-cells were stimulated with either immunizing peptides (10 μg/ml), the irrelevant control peptide (10 μg/ml), UV-inactivated HSV-1 (MOI=3), or with ConA (0.5 μg/ml) as a positive control. Culture media were harvested 48 h (for IL-2) or 96 h (for IL-4 and IFN-γ) later and analyzed by specific sandwich ELISA following the manufacturer's instructions (PharMingen, San Diego, Calif.).
# [1] = tested on: HLA-DR and HLA-DP molecules; experiment: MHC class II binding assays, panel of twelve HLA class II molecules (number of alleles bound); conditions: number of the twelve class II MHC alleles bound; title: Threshold 600 nM/5 alleles
# [2] = tested on: lymphocytes obtained from HSV-1 infected H-2^d mice; experiment: HSV-primed T-cell responses to gD peptides in HSV-1 infected mice; format: cell-based; conditions: HSV-1 infected H-2^d mice
# Experimental: Twelve days after the second immunization, spleen and inguinal lymph nodes (LN) were removed and placed into ice-cold serum free HL-1 medium supplemented with 15 mM HEPES, 5×10^−5 M β-mercaptoethanol, 2 mM glutamine, 50 U of penicillin and 50 μg of streptomycin (GIBCO-BRL, Grand Island, N.Y.) (complete medium, CM). The cells were cultured in 96-well plates at 5×10^5 cells/well in CM, with recall or control peptide at 30, 10, 3, 1, or 0.3 μg/ml concentration, as previously described in (BenMohamed et al., 2000 and 2002). The cell suspensions were incubated for 72 h at 37° C. in 5% CO2. One μCi (micro-curie) of (^3H)-thymidine (Dupont MEN, Boston, Mass.) was added to each well during the last 16 h of culture. The incorporated radioactivity was determined by harvesting cells onto glass fiber filters and counted on a Matrix 96 direct ionization-counter (Packard Instruments, Meriden, Conn.). Results were expressed as the mean cpm of cell-associated (^3H)-thymidine recovered from wells containing Ag minus the mean cpm of cell-associated (^3H)-thymidine recovered from wells without Ag (A cpm) (average of triplicate). The Stimulation Index (SI) was calculated as the mean cpm of cell-associated (^3H)-thymidine recovered from wells containing Ag divided by the mean cpm of cell-associated (^3H)-thymidine recovered from wells without Ag (average of triplicate). For all experiments the irrelevant control peptide gB141-165 and the T-cell mitogen Concanavalin A (ConA) (Sigma, St. Louis, Mo.) were used as negative and positive controls, respectively. Proliferation results were confirmed by repeating each experiment twice. A T-cell proliferative response was considered positive when A cpm>1000 and SI>2.
# To define the fine specificity of broadly reactive T-cells associated with viral immunity and to explore immunodominance in the context of HSV infection, proliferation of lymphocytes obtained from twenty HSV-1 infected H-2^d mice were evaluated using the twelve gD peptides as Ag (FIG. 6). […] Despite a difference between individual mice, a unique array of T-cell responses was identified for each of the twenty infected mice analyzed.
# [3] = T cells treated with Abs to CD4
# [4] = T cells treated with Abs to CD8
# [5] = splenocyte derived T cells, no Abs, average of triplicates (+/- SD)
smiles,measurement,setting,value
CC[C@H](C)[C@H](N)C(=O)N[C@@H](CS)C(=O)NCC(=O)N[C@H](C(=O)N[C@H](C(=O)N[C@@H](Cc1ccc(O)cc1)C(=O)N[C@@H](Cc1c[nH]c2ccccc12)C(=O)N[C@@H](CCSC)C(=O)N[C@@H](CCCNC(=N)N)C(=O)N[C@@H](CCCNC(=N)N)C(=O)N[C@@H](Cc1c[nH]cn1)C(=O)N[C@H](C(=O)N[C@@H](CCC(N)=O)C(=O)N[C@@H](CCCCN)C(=O)N[C@@H](C)C(=O)N1CCC[C@H]1C(=O)N[C@@H](CCCCN)C(=O)N[C@@H](CCCNC(=N)N)C(=O)N[C@H](C(=O)N[C@@H](CCCNC(=N)N)C(=O)N[C@@H](CC(C)C)C(=O)N1CCC[C@H]1C(=O)N[C@@H](Cc1c[nH]cn1)C(=O)N[C@H](C(=O)N[C@@H](CCCNC(=N)N)C(=O)N[C@@H](CCC(=O)O)C(=O)N[C@@H](CC(=O)O)C(=O)O)[C@@H](C)CC)[C@@H](C)CC)[C@@H](C)O)C(C)C)[C@@H](C)CC [HSV 39],"IFNγ, Anti-CD4",T-cells; [3],4 (+/−1) ng/ml
same,"IL-2, Anti-CD4",T-cells; [3],36 (+/−1) pg/ml
same,"IFNγ, Anti-CD8",T-cells; [4],54 (+/−1) ng/ml
same,"IL-2, Anti-CD8",T-cells; [4],13 (+/−4) pg/ml
same,"IFNγ, None",T-cells; [5],179 (+/5−) ng/ml
same,"IL-2, None",T-cells; [5],135 (+/6−) pg/ml
same,Range,[1],6
same,immunodominance of epitopes in HSV-primed T-cell responses,[2],immunodominant epitopes
